Results reported in patent US9302999B2, “Substituted triazoles as herbicides” (E. I. DU PONT DE NEMOURS AND COMPANY, priority 2012, dated 2016).
Where two headings read alike, the source gives them in different places.

How the values were obtained:
Format in all cases: in vivo
[1] = tested on: foxtail, giant (giant foxtail, Setaria faberii); assay: Test C pre-/postemergence: foxtail, giant
From the text: (§1) Seeds of plant species selected from blackgrass (Alopecurus myosuroides), bromegrass, downy (downy bromegrass, Bromus tectorum), foxtail, green (green foxtail, Setaria viridis), ryegrass, Italian (Italian ryegrass, Lolium multiflorum), winter wheat (Triticum aestivum), wild oat (Avena fatua), galium (catchweed bedstraw, Galium aparine), bermudagrass (Cynodon dactylon), surinam grass (Brachiaria decumbens), cocklebur (common cocklebur, Xanthium strumarium), corn (Zea mays), large crabgrass (Digitaria sanguinalis), woolly cupgrass (Eriochloa villosa), foxtail, giant (giant foxtail, Setaria faberii), goosegrass (Eleusine indica), johnsongrass (Sorghum halepense), kochia (Kochia scoparia), lambsquarters (Chenopodium album), morningglory (Ipomoea coccinea), nightshade (eastern black nightshade, Solanum ptycanthum), nutsedge, yellow (yellow nutsedge, Cyperus esculentus), pigweed (Amaranthus retroflexus), ragweed (common ragweed, Ambrosia elation), soybean (Glycine max), common (oilseed) sunflower (Helianthus annuus), Russian thistle (Salsola kali) and velvetleaf (Abutilon theophrasti) were planted into a blend of loam soil and sand and treated preemergence with test chemicals formulated in a non-phytotoxic solvent mixture which included a surfactant.
(§2) At the same time, plants selected from these crop and weed species and also barley (winter barley, Hordeum vulgare), canarygrass (Phalaris minor), chickweed (common chickweed, Stellaria media) windgrass (Apera spica-venti) and deadnettle (henbit deadnettle, Lamium amplexicaule) were planted in pots containing Redi-Earth® planting medium (Scotts Company, 14111 Scottslawn Road, Marysville, Ohio 43041) comprising spaghnum peat moss, vermiculite, wetting agent and starter nutrients and treated with postemergence applications of test chemicals formulated in the same manner. Plants ranged in height from 2 to 18 cm (1- to 4-leaf stage) for postemergence treatments.
(§3) Treated plants and controls were maintained in a greenhouse for 13 to 15 days, after which time all species were compared to controls and visually evaluated. Plant response ratings, summarized in Table C, are based on a scale of 0 to 100 where 0 is no effect and 100 is complete control. A dash (-) response means no test result.

[2] = tested on: pigweed (Amaranthus retroflexus); assay: Test A pre-/postemergence: pigweed; conditions: Amaranthus retroflexus, 240 h; for pest or weed control at 125 g/ha: 125 g ai/ha; for pest or weed control at 500 g/ha: 500 g ai/ha
Summary of the method: (§4)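 Plants in loam–sand blend were treated with test chemicals in non-phytotoxic solvent with surfactant, either as preemergence directed soil spray or postemergence at 2–10 cm, one- to two-leaf stage. After about ten days in greenhouse, injury was rated visually against untreated controls on a 0–100 scale (100 = complete control).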

kochia (Kochia scoparia) = assay: Test C pre-/postemergence: kochia
Summary of the method: (§5)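 Visual injury scored 0–100 (100 = complete control) against untreated controls after 13–15 greenhouse days. Surfactant-containing solvent formulations applied either to soil after sowing (loam/sand) or over 1- to 4-leaf plants, 2–18 cm tall.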

[3] = tested on: velvetleaf (Abutilon theophrasti); assay: Test A pre-/postemergence: velvetleaf; conditions: Abutilon theophrasti, 240 h; for pest or weed control at 125 g/ha: 125 g ai/ha; for pest or weed control at 500 g/ha: 500 g ai/ha
Summary of the method: as §4

[4] = tested on: ragweed (common ragweed, Ambrosia elation); assay: Test C pre-/postemergence: ragweed; conditions: Postemergence
Summary of the method: as §5

[5] = tested on: crabgrass, large (large crabgrass, Digitaria sanguinalis); assay: Test A pre-/postemergence: crabgrass, large; conditions: Digitaria sanguinalis, 240 h; for pest or weed control at 125 g/ha: 125 g ai/ha; for pest or weed control at 500 g/ha: 500 g ai/ha
Summary of the method: as §4

[6] = tested on: foxtail, giant (giant foxtail, Setaria faberii); assay: Test A pre-/postemergence: foxtail, giant; conditions: Setaria faberi, 240 h; for pest or weed control at 125 g/ha: 125 g ai/ha; for pest or weed control at 500 g/ha: 500 g ai/ha
Summary of the method: as §4

[7] = tested on: chickweed (common chickweed, Stellaria media); assay: Test C postemergence: chickweed
From the text: as §2, §3

wild oat (Avena fatua) = assay: Test C pre-/postemergence: wild oat
From the text: as §1, §2, §3

[8] = Postemergence, 16 g ai/ha, scale 0 to 100, 0 no effect, 100 complete control
[9] = Postemergence, 31 g ai/ha, scale 0 to 100 (0 no effect, 100 complete control)
[10] = Postemergence, 62 g ai/ha, scale 0 to 100 (0 no effect, 100 complete control)
[11] = Postemergence, 125 g ai/ha, scale 0 to 100, 0 no effect, 100 complete control
[12] = Preemergence, 16 g ai/ha, scale 0 (no effect) to 100 (complete control)
[13] = Preemergence, 31 g ai/ha, scale of 0 to 100, 0 is no effect, 100 is complete control
[14] = Preemergence, 62 g ai/ha, scale of 0 to 100, 0 is no effect, 100 is complete control
[15] = Preemergence, 125 g ai/ha, scale 0 to 100, 0 no effect, 100 complete control
[16] = 16 g ai/ha, scale 0 to 100, 0 no effect, 100 complete control
[17] = 31 g ai/ha, scale 0 to 100 (0 no effect, 100 complete control)
[18] = 62 g ai/ha, scale 0 to 100 (0 no effect, 100 complete control)
[19] = 125 g ai/ha, scale 0 to 100, 0 no effect, 100 complete control

## COc1nn(-c2ccc(C(F)(F)F)cc2)nc1Cc1ccnc(C(F)(F)F)c1 [Compound 15, 4-[[5-methoxy-2-[4-(trifluoromethyl)phenyl]-2H-1,2,3-triazol-4-yl]methyl]-2-(trifluoromethyl)pyridine]
[1]; [8]
  Plant response rating, Foxtail, Giant: 5
[1]; [9]
  Plant response rating, Foxtail, Giant: 10
[1]; [10]
  Plant response rating, Foxtail, Giant: 10
[1]; [11]
  Plant response rating, Foxtail, Giant: 75
[1]; [12]
  Plant response rating, Foxtail, Giant: 95
[1]; [13]
  Plant response rating, Foxtail, Giant: 95
[1]; [14]
  Plant response rating, Foxtail, Giant: 100
[1]; [15]
  Plant response rating, Foxtail, Giant: 100
[2]; post-emergence, Postemergence, 0 to 100 scale, 0 is no effect, 100 is complete control, read-out: Pigweed plant response rating
  pest or weed control at 125 g/ha: 100%
[2]; post-emergence, Postemergence, visual rating on 0 to 100 scale (0 no effect, 100 complete control), approximately ten days, read-out: Pigweed plant response rating
  pest or weed control at 500 g/ha: 100%
[2]; pre-emergence, Preemergence, 0 to 100 scale (0 no effect, 100 complete control), read-out: Plant response rating, Pigweed
  pest or weed control at 125 g/ha: 100%
[2]; pre-emergence, Preemergence, 0 to 100 scale, 0 is no effect, 100 is complete control, read-out: Plant response rating, Pigweed
  pest or weed control at 500 g/ha: 100%
Kochia (Kochia scoparia); [8]
  Plant response rating, Kochia: 90
Kochia (Kochia scoparia); [9]
  Plant response rating, Kochia: 95
Kochia (Kochia scoparia); [10]
  Plant response rating, Kochia: 95
Kochia (Kochia scoparia); [11]
  Plant response rating, Kochia: 95
Kochia (Kochia scoparia); [12]
  Plant response rating, Kochia: 0
Kochia (Kochia scoparia); [13]
  Plant response rating, Kochia: 70
Kochia (Kochia scoparia); [14]
  Plant response rating, Kochia: 70
Kochia (Kochia scoparia); [15]
  Plant response rating, Kochia: 85
[3]; post-emergence, Postemergence, 0 to 100 scale, 0 is no effect, 100 is complete control, read-out: Velvetleaf plant response rating
  pest or weed control at 125 g/ha: 100%
[3]; post-emergence, Postemergence, visual rating on 0 to 100 scale (0 no effect, 100 complete control), approximately ten days, read-out: Velvetleaf plant response rating
  pest or weed control at 500 g/ha: 100%
[3]; pre-emergence, Preemergence, 0 to 100 scale (0 no effect, 100 complete control), read-out: Plant response rating, Velvetleaf
  pest or weed control at 125 g/ha: 70%
[3]; pre-emergence, Preemergence, 0 to 100 scale, 0 is no effect, 100 is complete control, read-out: Plant response rating, Velvetleaf
  pest or weed control at 500 g/ha: 80%
[4]; [16]
  Plant response rating, Ragweed: 45
[4]; [17]
  Plant response rating, Ragweed: 60
[4]; [18]
  Plant response rating, Ragweed: 60
[4]; [19]
  Plant response rating, Ragweed: 70
[5]; post-emergence, Postemergence, 0 to 100 scale, 0 is no effect, 100 is complete control, read-out: Crabgrass, Large plant response rating
  pest or weed control at 125 g/ha: 90%
[5]; post-emergence, Postemergence, visual rating on 0 to 100 scale (0 no effect, 100 complete control), approximately ten days, read-out: Crabgrass, Large plant response rating
  pest or weed control at 500 g/ha: 90%
[5]; pre-emergence, Preemergence, 0 to 100 scale (0 no effect, 100 complete control), read-out: Plant response rating, Crabgrass, Large
  pest or weed control at 125 g/ha: 100%
[5]; pre-emergence, Preemergence, 0 to 100 scale, 0 is no effect, 100 is complete control, read-out: Plant response rating, Crabgrass, Large
  pest or weed control at 500 g/ha: 100%
[6]; post-emergence, Postemergence, 0 to 100 scale, 0 is no effect, 100 is complete control, read-out: Foxtail, Giant plant response rating
  pest or weed control at 125 g/ha: 90%
[6]; post-emergence, Postemergence, visual rating on 0 to 100 scale (0 no effect, 100 complete control), approximately ten days, read-out: Foxtail, Giant plant response rating
  pest or weed control at 500 g/ha: 90%
[6]; pre-emergence, Preemergence, 0 to 100 scale (0 no effect, 100 complete control), read-out: Plant response rating, Foxtail, Giant
  pest or weed control at 125 g/ha: 100%
[6]; pre-emergence, Preemergence, 0 to 100 scale, 0 is no effect, 100 is complete control, read-out: Plant response rating, Foxtail, Giant
  pest or weed control at 500 g/ha: 100%
[7]; [16]
  Plant response rating, Chickweed: 55
[7]; [17]
  Plant response rating, Chickweed: 55
[7]; [18]
  Plant response rating, Chickweed: 70
[7]; [19]
  Plant response rating, Chickweed: 75
Wild oat (Avena fatua); [8]
  Plant response rating, Oat, Wild: 40
Wild oat (Avena fatua); [9]
  Plant response rating, Oat, Wild: 45
Wild oat (Avena fatua); [10]
  Plant response rating, Oat, Wild: 55
Wild oat (Avena fatua); [11]
  Plant response rating, Oat, Wild: 60
Wild oat (Avena fatua); [12]
  Plant response rating, Oat, Wild: 35
Wild oat (Avena fatua); [13]
  Plant response rating, Oat, Wild: 40
Wild oat (Avena fatua); [14]
  Plant response rating, Oat, Wild: 70
Wild oat (Avena fatua); [15]
  Plant response rating, Oat, Wild: 70
